In doi:10.1101/2025.08.01.667454v3 (biorxiv, 2025):

Experiments:
[1] = biological target: T1, BAF60A^YLD+SWIB (Homo sapiens, UniProt Q96GM5); assay: fluorescence polarization competition with PU.[…]; format: binding
[2] = biological target: T1, BAF60A^YLD+SWIB; assay: SPR steady state, amine-coupled protein; format: binding

Structure (SMILES)	IC50 [1]	Kd [2]
CC1=C(C(=O)Nc2cccc(C)n2)C(c2cccc(Br)c2)C2=C(CCCC2=O)N1 (stereo not shown) [PPSC-001]	9.13 µM	8.89 µM
COC(=O)c1ccc(Cn2c(C)nc3cc4c(cc32)OCCO4)cc1 [PPSC-002]	33 µM	22.6 µM
